Experimental data as given in patent US12090140B2, “Non-sedating dexmedetomidine treatment regimens” (priority 2023, dated 2024).
Several values for one entry are separate records, joined by “and”; a condition that tells them apart may be missing. Identical values can stand only once. Counter-ions that a name gives are not always drawn. Like-named read-outs stand apart in the source and are kept apart here.

Legend:
[1] = system: subjects suffering from schizophrenia; details: for RASS values after infusion start, individual patients: IV infusion, treatment arm
Excerpt: Another Key Objective of the study was to determine the reduction in the level of agitation, as determined by their PEC score, at the doses to achieve a RASS of −1.
Patients 5, 7, 8 and 9 received placebo.

[2] = system: agitation in subjects suffering from schizophrenia
[3] = IV infusion
Excerpt: (§1) Mean infusion rate is 0.36 mcg/kg/hr with the maximum rate ranging from about 0.2 mcg/kg/hr to about 0.6 mcg/kg/hr (see FIGS. 18 to 20).

clinical = details: human, in vivo, iv
Excerpt: as §1

plasma proteins = details: in vitro; cited from earlier work
[4] = pH 7.4; cited from earlier work
[5] = cited from earlier work; for Mean clearance relative to subjects with normal hepatic function: IV infusion of 0.6 meg/kg over 10 minutes
[6] = system: adult patients and healthy adult subjects; details: cited from earlier work
[7] = IV infusion from 0.2 mcg/kg/hr, rising 0.1 mcg/kg/hr every 30 minutes

Cc1cccc([C@H](C)c2cnc[nH]2)c1C [Dexmedetomidine hydrochloride, 4-[(1S)-1-(2,3-dimethylphenyl)ethyl]-1H-imidazole hydrochloride]
RASS values after infusion start, individual patients ([1]; 15 minutes, hydrochloride): −2 and −1
RASS values after infusion start, individual patients ([1]; 30 minutes): 0
RASS values after infusion start, individual patients ([1]; 75 minutes): −1
RASS values after infusion start, individual patients ([1]; 90 minutes): 0
Patients achieving a RASS score of at least −1 [1, 7]: 9 out of 10
RASS values after infusion start, individual patients ([1]; […]): 0
Patients with agitation reduced to a minimum (PEC score of 7 or below) [2, 7]: 9 out of 10
Subjects with >=50% reduction in PEC score ([2]; IV route): 7 of 10
Subjects with a 40% reduction in PEC score at a Cmax of =<72 μg/mL ([2]; IV route): 5 of 10
Plasma level concentration ([3]; Patient 1 (treatment), 15 min): 0.02245 ng/mL
Plasma level concentration ([3]; Patient 1 (treatment), 30 min): 0.01472 ng/mL
Plasma level concentration ([3]; Patient 4 (treatment), 90 min): 0.0443 ng/mL
Plasma level concentration ([3]; Patient 11 (treatment), 15 min): 0.04101 ng/mL
Plasma level concentration ([3]; Patient 11 (treatment), 30 min): 0.06291 ng/mL
Plasma level concentration ([3]; Patient 11 (treatment), 45 min): 0.12407 ng/mL
Plasma level concentration ([3]; Patient 11 (treatment), 60 min): 0.15047 ng/mL
Plasma level concentration ([3]; Patient 12 (treatment), 30 min): 0.04487 ng/mL
Plasma level concentration ([3]; Patient 12 (treatment), 45 min): 0.05051 ng/mL
Plasma level concentration ([3]; Patient 12 (treatment), 60 min): 0.1086 ng/mL
Plasma level concentration ([3]; Patient 12 (treatment), 75 min): 0.15854 ng/mL
Plasma level concentration ([3]; Patient 12 (treatment), 90 min): 0.23783 ng/mL
Plasma level concentration ([3]; Patient 14 (treatment), 30 min): 0.05266 ng/mL
Plasma level concentration ([3]; Patient 14 (treatment), 45 min): 0.04653 ng/mL
Plasma level concentration ([3]; Patient 14 (treatment), 60 min): 0.4063 ng/mL
Plasma level concentration ([3]; Patient 16 (treatment), 15 min): 0.00256 ng/mL
Plasma level concentration ([3]; Patient 16 (treatment), 30 min): 0.01559 ng/mL
Plasma level concentration ([3]; Patient 16 (treatment), 45 min): 0.04117 ng/mL
Plasma level concentration ([3]; Patient 16 (treatment), 60 min): 0.06788 ng/mL
Plasma level concentration ([3]; Patient 16 (treatment), 75 min): 0.07226 ng/mL
Plasma level concentration ([3]; Patient 17 (treatment), 15 min): 0.01587 ng/mL
Plasma level concentration ([3]; Patient 17 (treatment), 45 min): 0.03993 ng/mL
Plasma level concentration ([3]; Patient 18 (treatment), 15 min): 0.04836 ng/mL
Plasma level concentration ([3]; Patient 18 (treatment), 30 min): 0.05453 ng/mL
Cmax (clinical): 0.022 ng/mL
Displacement of phenytoin, warfarin, ibuprofen, propranolol, theophylline and digoxin (plasma proteins): none of these compounds appeared to be significantly displaced
Partition coefficient in octanol/water [4]: 2.89

Cc1cccc([C@H](C)c2c[nH]cn2)c1C [intravenous dexmedetomidine]
Effect of sex on pharmacokinetics ([5]; intravenous): no observed difference
Mean clearance relative to subjects with normal hepatic function ([5]; mild hepatic impairment): 74%
Mean clearance for free drug relative to subjects with normal hepatic function ([5]; mild hepatic impairment): 59%
Mean clearance relative to subjects with normal hepatic function ([5]; moderate hepatic impairment): 64%
Mean clearance for free drug relative to subjects with normal hepatic function ([5]; moderate hepatic impairment): 51%
Mean clearance relative to subjects with normal hepatic function ([5]; severe hepatic impairment): 53%
Mean clearance for free drug relative to subjects with normal hepatic function ([5]; severe hepatic impairment): 32%
Effects of overdose ([6]; IV 2 mcg/kg loading dose over 10 minutes, two patients): bradycardia and/or hypotension
Maximum blood concentration in tolerability study ([6]; IV doses at and above 0.2 to 0.7 mcg/kg/hour, healthy adult subjects): approximately 13 times the upper boundary of the therapeutic range
Most notable effects at the highest doses ([6]; IV tolerability study, two subjects): first degree atrioventricular block and second-degree heart block
Adult patients with at least 1 event related to withdrawal, n (%) ([6]; IV up to 7 days, within the first 24 hours after discontinuing): 12 (5%)
Adult patients with at least 1 event related to withdrawal, n (%) ([6]; IV, 24 to 48 hours after discontinuing): 7 (3%)
Frequency of tachycardia and hypertension requiring intervention ([6]; IV, 48 hours following discontinuation): < 5%
